Results as given in PMC10698503, “Phosphatase specificity principles uncovered by MRBLE:Dephos and global substrate identification” (Molecular Systems Biology, 2023).
Non-standard residues stand in square brackets, D forms with d. No end group written: not given here. pT = C[C@@H](OP(=O)(O)O)[C@H](N)C(=O)O

Key:
[1] = target: T1, PP1γ (Homo sapiens, UniProt P36873); assay: MRBLE:Pep concentration-dependent PP1 binding to bead-bound RVxF peptides; conditions: bead-bound peptide, PP1 0-2,000 nM with anti-PP1 and Alexa 647 secondary antibody, 24 h at 4°C, 50 mM Tris pH 7.5, 150 mM NaCl, 0.1% TWEEN 20; median and SD across experimental replicates (n = 3); read-out: Kd, MRBLE-pep (Langmuir isotherm fit)
T1 construct: His; made in house; host or cells: E. coli BL21(DE3)
Method: After incubating bead‐bound peptide libraries with PP1, an unlabeled anti‐PP1 primary antibody, and an Alexa 647‐labeled secondary antibody, we washed beads and imaged again in both lanthanide and fluorescence channels to identify peptides and quantify the amount of PP1 bound (Fig 5A). Repeating these experiments over eight different PP1 concentrations enabled acquisition of concentration‐dependent binding curves; fitting the mean intensity of all beads with a given code at different concentrations of PP1γ and fitting to a Langmuir isotherm made it possible to quantify absolute affinities (Figs 5B and Appendix Fig S11).
PP1 concentration‐dependent binding to peptides on MRBLEs was done as described previously (Hein et al, [2021a]). In short, ~ 700 beads per code were mixed in and blocked in 700 μL PBS‐T with 5% BSA. PP1 (2 μM) was preincubated in binding buffer (50 mM Tris pH = 7.5, 150 mM NaCl, and 0.1% TWEEN 20) with 1 μM primary (a‐PPP1CC rabbit polyclonal, Bethyl A300‐906A) and 1 μM goat anti‐rabbit IgG Alexa Fluor 647 (Thermo Fischer, A‐21245). […]
We then computed the mean y max value across all of these peptides and refit concentration‐dependent binding curves for all peptide sequences to the Langmuir isotherm equation using this experimentally determined y max value for all peptide sequences and fitting only the K d term. […]

[2] = target: T1, PP1γ; assay: ITC of RVxF model peptides with PP1γ; format: binding; conditions: peptide ~450 μM titrated into PP1γ ~35 μM, 25°C, 50 mM sodium phosphate, 150 mM NaCl, 0.5 mM TCEP, pH 7.5, single-site model
Method: Prior to ITC experiments, both the protein and the peptides were extensively dialyzed against 50 mM sodium phosphate, 150 mM NaCl, and 0.5 mM TCEP, pH 7.5. All ITC experiments were performed on an Auto‐iTC200 instrument (Microcal, Malvern Instruments Ltd.) at 25°C. Both peptide and PP1γ concentrations were determined using a spectrometer by measuring the absorbance at 280 nm and applying values for the extinction coefficients computed from the corresponding sequences by the ProtParam program (http://web.expasy.org/protparam/). The peptides at approximately 450 μM concentration were loaded into the syringe and titrated into the calorimetric cell containing the PP1γ at ~ 35 μM. The reference cell was filled with distilled water. In all assays, the titration sequence consisted of a single 0.4 μl injection followed by 19 injections, 2 μl each, with 150 s spacing between injections to ensure that the thermal power returns to the baseline before the next injection. The stirring speed was 750 rpm. Control experiments with the peptides injected in the sample cell filled with buffer were carried out under the same experimental conditions. […] The heats per injection normalized per mole of injectant versus the molar ratio [peptide]/[PP1γ] were fitted to a single‐site model. Data were analyzed with MicroCal PEAQ‐ITC (version 1.1.0.1262) analysis software (Malvern Instruments Ltd.).

[3] = system: PP2A‐B55α; assay: Phosphate release assay (PiColorLock / malachite green) with PP2A-B55; format: biochemical, human; conditions: B55 WT, peptide 120 μM, 80 ng phosphatase, 20 min 30°C
Method: PP2A‐B55α holoenzymes were purified from HeLa cells stably expressing FLAG‐tagged B55α as previously described (Kruse et al, [2020]).
In vitro phosphatase assays were performed with E. coli–expressed PP1γ or PP2A‐B55α purified from HeLa cell (ATCC, RRID CVCL_0030) extracts as described previously. […] The PiColorLock inorganic phosphate detection kit (abcam) was used to detect the amount of phosphate released from the phosphorylated peptides.

[4] = system: Venus-B55; assay: Affinity purification (pulldown) of YFP/Venus-B55 from mitotic cells, label-free LC-MS/MS; format: binding, human
From the text: (§1) We defined interactomes of PP1γ and B55α during mitosis using affinity purification of YFP‐tagged subunits and also proximity‐dependent ligation using miniTurbo to capture interactions at mitotic exit (Appendix Fig S8) (Branon et al, [2018]; Sears et al, [2019]). […] These identified proteins can constitute both regulators and substrates. […] To understand how these protein interactions might shape dephosphorylation, we first aimed at generating interactome networks and overlay regulated sites. We integrated interactomes and information from the STRING database (Szklarczyk et al, [2023]) with our regulated phosphorylation sites to generate a network of complexes and dephosphorylation sites (Fig 4C and Appendix Fig S9A). For PP1, we also integrated information on known and predicted RVxF motifs (Smith et al, [2019]). […] As an example, CASC5 (KNL1) could scaffold PP1 dephosphorylation of CENPC S261, a phosphorylation site in a nuclear localization sequence. In agreement with previous work, PP2A‐B55 regulated dephosphorylation of several nucleoporins at mitotic exit consistent with Nup153 and TPR being present in the interactomes (Cundell et al, [2016]).
(§2) PP1 and B55 cDNAs were cloned into modified versions of pcDNA5/FRT/TO (Invitrogen) to make N‐terminal fusions to YFP, BioID, or TurboID. Stable cell lines were generated into HeLa/FRT/TRex cells (kind gift from S. Taylor), and for YFP affinity, purification cells were synchronized with thymidine and released into nocodazole‐containing media to arrest them in mitosis. Cells were resuspended in lysis buffer (50 mM NaCl, 50 mM Tris 7,4, 1 mM EDTA, 0.1% NP40, 1 mM DTT, and protease inhibitor cocktail), and following sonication, the lysate was clarified by centrifugation. Cell lysate was incubated with GFP‐Trap beads (Chromotek) for 1 h, washed 3 × 1 ml with lysis buffer, and resuspended in SDS–PAGE loading buffer.
(§3) The Q‐Exactive Plus was set to perform an Orbitrap MS1 scan (R = 70 K; AGC target = 1e6) from 350 to 1,500 m/z, followed by HCD MS2 spectra on the 10 most abundant precursor ions detected by Orbitrap scanning (R = 17.5 K; AGC target = 1e5; max ion time = 50 ms) before repeating the cycle. Precursor ions were isolated for HCD by quadrupole isolation at width = 1 m/z and HCD fragmentation at 26 normalized collision energy (NCE). Charge state 2, 3, and 4 ions were selected for MS2. Precursor ions were added to a dynamic exclusion list ± 20 ppm for 15 s. […] Static modifications included carbamidomethylcysteine and variable modifications included oxidized methionine. […] Missing values were imputed from a normal distribution in Perseus to enable statistical analysis and visualization by volcano plot (Tyanova et al, [2016]). Statistical analysis was carried out in Perseus by two‐tailed Student's t‐test.

[5] = system: Venus-PP1; assay: Affinity purification (pulldown) of YFP/Venus-PP1 from mitotic cells, label-free LC-MS/MS; format: binding, human
From the text: as §1, §2, §3

T1 sequence (P36873 whole entry): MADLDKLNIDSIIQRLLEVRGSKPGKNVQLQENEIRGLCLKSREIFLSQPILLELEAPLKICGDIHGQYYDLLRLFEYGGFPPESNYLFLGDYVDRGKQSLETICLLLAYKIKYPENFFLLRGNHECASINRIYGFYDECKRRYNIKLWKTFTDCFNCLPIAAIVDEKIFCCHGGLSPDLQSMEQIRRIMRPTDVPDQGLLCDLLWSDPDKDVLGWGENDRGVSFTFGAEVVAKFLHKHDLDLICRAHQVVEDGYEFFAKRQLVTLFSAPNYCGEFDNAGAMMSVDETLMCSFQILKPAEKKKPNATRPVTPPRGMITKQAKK

AKNSRVTFSEDDEII
Kd [1]: 3400 ± 700 nM

AKNSRVTFSEDDEIW
Kd [2]: 190 ± 10 nM

INCENP WT: phosphorylated INCENP 53-67 peptide (T59), wild type (PELMPK[pT]PSQKNRRK; UniProt Q9NQS7 53-67, looked up, fragment)
phosphate released from peptide by PP2A-B55 (in vitro dephosphorylation assay, Fig 3B) ([3]; 50 mM Tris pH 7.4, 1 mM MnCl2, 150 mM NaCl, technical repeat 1): 0,806 | phosphate released from peptide by PP2A-B55 (in vitro dephosphorylation assay, Fig 3B) ([3]; technical repeat 2): 0,858 | phosphate released from peptide by PP2A-B55 (in vitro dephosphorylation assay, Fig 3B) ([3]; technical repeat 3): 0,812

TOP2A_HUMAN
log2 ratio [Venus-B55/Venus] ([4]; enrichment in Venus-B55 pulldown over Venus control, from 3 replicates each): 1.41 | log2 IBAQ [Venus-B55 1] ([4]; pulldown of Venus-B55 from mitotic cells, label-free LC-MS/MS, log2 IBAQ of co-purified protein, replicate 1): 16.03 | log2 IBAQ [Venus-B55 2] ([4]; pulldown of Venus-B55 from mitotic cells, label-free LC-MS/MS, log2 IBAQ of co-purified protein, replicate 2): 16.59 | log2 IBAQ [Venus-B55 3] ([4]; pulldown of Venus-B55 from mitotic cells, label-free LC-MS/MS, log2 IBAQ of co-purified protein, replicate 3): 15.37 | B55 or PP1? ([5]; assignment of the co-purified protein as interactor of Venus-B55 and/or Venus-PP1 (both pulldowns)): B55/PP1 | log2 ratio [Venus-PP1/Venus] ([5]; enrichment in Venus-PP1 pulldown over Venus control, from 3 replicates each): 4.66 | log2 IBAQ [Venus-PP1 1] ([5]; pulldown of Venus-PP1 from mitotic cells, label-free LC-MS/MS, log2 IBAQ of co-purified protein, replicate 1): 19.15 | log2 IBAQ [Venus-PP1 2] ([5]; pulldown of Venus-PP1 from mitotic cells, label-free LC-MS/MS, log2 IBAQ of co-purified protein, replicate 2): 19.33 | log2 IBAQ [Venus-PP1 3] ([5]; pulldown of Venus-PP1 from mitotic cells, label-free LC-MS/MS, log2 IBAQ of co-purified protein, replicate 3): 21.02
